In patent US5272175A, “Substituted tyrosyl diamide compounds” (priority 1992, dated 1993):
Counter-ions that a name gives are not always drawn. Like-named read-outs stand apart in the source and are kept apart here.

Experiments:
[1] = target: μ opioid receptors (Rattus norvegicus, UniProt P33535); experiment: Opiate Binding Assay, displacement of 3[H]-DAMPGO from μ receptors
[2] = target: δ opioid receptors (Rattus norvegicus, UniProt P33533); experiment: Opiate Binding Assay, displacement of 3[H]-DSLET from δ receptors; details: for Mean IC50 μ/δ Ratio: ratio of mean IC50 values for μ and δ, above 1.0 = more δ specific
Chain of δ opioid receptors (P33533 whole entry): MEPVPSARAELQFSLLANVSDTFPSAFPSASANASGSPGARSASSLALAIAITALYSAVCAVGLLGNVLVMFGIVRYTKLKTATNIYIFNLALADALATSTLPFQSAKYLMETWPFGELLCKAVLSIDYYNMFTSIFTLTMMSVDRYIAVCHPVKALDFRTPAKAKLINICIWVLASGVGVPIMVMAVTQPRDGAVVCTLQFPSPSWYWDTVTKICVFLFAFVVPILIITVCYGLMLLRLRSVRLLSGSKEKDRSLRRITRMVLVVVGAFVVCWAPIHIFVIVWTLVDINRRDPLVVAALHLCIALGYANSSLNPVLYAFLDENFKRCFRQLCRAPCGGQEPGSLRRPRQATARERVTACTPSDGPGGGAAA

Chain of μ opioid receptors (P33535 whole entry): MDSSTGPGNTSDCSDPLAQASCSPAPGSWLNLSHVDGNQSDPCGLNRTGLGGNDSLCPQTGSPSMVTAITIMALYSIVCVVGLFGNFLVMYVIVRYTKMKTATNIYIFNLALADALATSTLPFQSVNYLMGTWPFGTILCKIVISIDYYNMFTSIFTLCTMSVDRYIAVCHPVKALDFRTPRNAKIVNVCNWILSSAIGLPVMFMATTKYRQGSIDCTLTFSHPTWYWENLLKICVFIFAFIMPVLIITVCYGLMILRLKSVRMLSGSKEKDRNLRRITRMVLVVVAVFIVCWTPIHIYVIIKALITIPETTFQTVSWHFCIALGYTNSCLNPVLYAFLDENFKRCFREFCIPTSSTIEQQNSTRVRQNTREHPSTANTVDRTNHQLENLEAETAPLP

SMILES	IC50 [1]	IC50 [2]	Mean IC50 μ/δ Ratio [2]	IC50 ([1]; read-out: Mean IC50 Value, μ, rat forebrain membranes, 3[H]-DAMPGO 2.0 nM, 37° C., pH 7.4)	IC50 ([2]; read-out: Mean IC50 Value, δ, rat forebrain membranes, 3[H]-DSLET 1.0 nM, 37° C., pH 7.4)
Cc1cc(O)cc(C)c1C[C@H](N)C(=O)N[C@H](C)CNC(=O)[C@H](Cc1ccccc1)NC(=O)OCc1ccccc1 [Example 46, Phenylmethyl[1S[[[2R-[[2S-amino-3-(4-hydroxy-2,6-dimethylphenyl) -1-oxopropyl]amino]propylamino]carbonyl]-2-phenylethyllcarbamate, hydrochloride]	0.00088 µM	0.0042 µM	0.2		
Cc1cc(O)cc(C)c1C[C@H](N)C(=O)NCCNC(=O)[C@@H](N)Cc1ccccc1 [Example 24, αS-amino-N-[2-[[2S-amino-3-(4-hydroxy-2,6-dimethylphenyl) -1-oxopropyl]amino]ethyl]benzenepropanamide, dihydrochloride]	0.0037 µM	0.562 µM	0.01		
Cc1cc(O)cc(C)c1C[C@H](N)C(=O)NC(C)(C)CNC(=O)[C@H](Cc1ccccc1)NC(=O)NS(=O)(=O)c1ccccc1 [Example 59, S-amino-N-[1,1-dimethyl-2-[[1-oxo-3-phenyl-2S-[[[(phenylsulfonyl)amino]carbonyl]amino]propyl]amino]ethyl]-4-hydroxy-2,6-dimethylbenzeneoropanamide, monohydrochloride]	0.0032 µM	0.0073 µM	0.4		
Cc1cc(O)cc(C)c1C[C@H](NC(=O)OC(C)(C)C)C(=O)NC(C)(C)CN [Example 4, 1,1-Dimethylethyl[1S-[[(2-amino-1,1-dimethylethyl)amino]carbonyl]-2-(4-hydroxy-2,6-dimethylphenyl)ethyl]carbamate]			10	1 µM	0.1 µM
CC(=O)N[C@@H](Cc1ccccc1)C(=O)NCC(C)(C)NC(=O)[C@H](N)Cc1c(C)cc(O)c(C)c1C [Example 41, αS-(acetylamino)-N-[2-[[2R-amino-3-(4-hydroxy-2,3,6-trimethylphenyl) -1-oxopropyl]amino]-2-methylpropyl]benzenepropanamide, monohydrochloride]	0.122 µM	0.257 µM	0.5		
Cc1cc(O)cc(C)c1C[C@H](N)C(=O)NCC(C)(C)NC(=O)[C@H](Cc1ccccc1)NC(=O)OCc1ccccc1 [Example 26, Phenylmethyl[1S-[[[2-[[2S-amino-3-(4-hydroxy-2,6-dimethylphenyl)-1-oxopropyl]amino]-1,1-dimethylethyl1-amino]carbonyl]-2-phenylethyl]carbamate, monohydrochloride]	0.019 µM	0.0298 µM	0.6		
Cc1cc(O)cc(C)c1C[C@H](N)C(=O)NC(C)(C)CNC(=O)[C@H](Cc1ccc(F)cc1)NC(=O)OCc1ccccc1 [Example 8, Phenylmethyl[1S-[[[2-[[2S-amino-3-(4-hydroxy-2,6-dimethylohenyl)-1-oxopropyllamino]-methylpropyl]amino]-carbonyl]-2-(4-fluorophenyl)ethyl]carbamate. monohydrochloride]	< 0.01 µM	0.028 µM			
C=CCNC(=O)N[C@@H](Cc1ccccc1)C(=O)NCC(C)(C)NC(=O)[C@@H](N)Cc1c(C)cc(O)cc1C [Example 28, αS-amino-N-[1,1-dimethyl-2-[1-oxo-3-phenyl-2S-[(2-propenylamino)carbonyl]amino]propyl]amino]ethyl]-4-hydroxy-2,6-dimethylbenzenepropanamide, monohydrochloride]	< 0.01 µM	~0.002 µM			
Cc1cc(O)c(C)c(C)c1C[C@H](N)C(=O)NC(C)(C)CNC(=O)[C@H](Cc1ccccc1)NC(=O)OCc1ccccc1 [Example 30, Phenylmethyl[1S[[[2-[[2S-amino-3-(4-hydroxy-2,3,6-trimethylphenyl)-1-oxopropyl]amino]-2-methylpropyl]amino]carbonyl]-2-phenylethyl]carbamate, hydrochloride]	< 0.01 µM	0.1 µM			
